Measurements: ChEMBL document CHEMBL1153388, “N(epsilon)-thioacetyl-lysine-containing tri-, tetra-, and pentapeptides as SIRT1 and SIRT2 inhibitors” (J Med Chem, 2009)
Where a SMILES comes first, the peptide text is derived from it. [ ]: non-standard residue; d: D form. Lys(Thioacetyl) = CC(=S)NCCCC[C@H](N)C(=O)O

What was measured:
[1] = molecular target: T1, NAD-dependent protein deacetylase sirtuin-2 (Homo sapiens, UniProt Q8IXJ6); assay: Inhibition of recombinant SIRT2 preincubated for 5 mins before addition of substrate measured after 3 hrs by fluorescence-based assay
T1 sequence (Q8IXJ6 whole entry): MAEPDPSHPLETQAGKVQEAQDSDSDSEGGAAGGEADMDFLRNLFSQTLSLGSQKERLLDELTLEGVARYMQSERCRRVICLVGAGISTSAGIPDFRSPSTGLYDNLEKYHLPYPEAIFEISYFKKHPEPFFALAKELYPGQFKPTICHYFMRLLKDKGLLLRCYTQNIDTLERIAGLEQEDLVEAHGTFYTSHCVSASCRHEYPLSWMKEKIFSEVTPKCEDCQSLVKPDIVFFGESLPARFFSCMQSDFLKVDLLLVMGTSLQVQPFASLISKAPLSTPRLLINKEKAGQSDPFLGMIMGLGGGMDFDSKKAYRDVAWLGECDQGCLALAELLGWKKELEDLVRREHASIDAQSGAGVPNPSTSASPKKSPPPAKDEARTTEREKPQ

[2] = molecular target: T2, NAD-dependent protein deacetylase sirtuin-1 (Homo sapiens, UniProt Q96EB6); assay: Inhibition of recombinant SIRT1 preincubated for 5 mins before addition of substrate measured after 1 hr by fluorescence-based assay
T2 sequence (Q96EB6 whole entry): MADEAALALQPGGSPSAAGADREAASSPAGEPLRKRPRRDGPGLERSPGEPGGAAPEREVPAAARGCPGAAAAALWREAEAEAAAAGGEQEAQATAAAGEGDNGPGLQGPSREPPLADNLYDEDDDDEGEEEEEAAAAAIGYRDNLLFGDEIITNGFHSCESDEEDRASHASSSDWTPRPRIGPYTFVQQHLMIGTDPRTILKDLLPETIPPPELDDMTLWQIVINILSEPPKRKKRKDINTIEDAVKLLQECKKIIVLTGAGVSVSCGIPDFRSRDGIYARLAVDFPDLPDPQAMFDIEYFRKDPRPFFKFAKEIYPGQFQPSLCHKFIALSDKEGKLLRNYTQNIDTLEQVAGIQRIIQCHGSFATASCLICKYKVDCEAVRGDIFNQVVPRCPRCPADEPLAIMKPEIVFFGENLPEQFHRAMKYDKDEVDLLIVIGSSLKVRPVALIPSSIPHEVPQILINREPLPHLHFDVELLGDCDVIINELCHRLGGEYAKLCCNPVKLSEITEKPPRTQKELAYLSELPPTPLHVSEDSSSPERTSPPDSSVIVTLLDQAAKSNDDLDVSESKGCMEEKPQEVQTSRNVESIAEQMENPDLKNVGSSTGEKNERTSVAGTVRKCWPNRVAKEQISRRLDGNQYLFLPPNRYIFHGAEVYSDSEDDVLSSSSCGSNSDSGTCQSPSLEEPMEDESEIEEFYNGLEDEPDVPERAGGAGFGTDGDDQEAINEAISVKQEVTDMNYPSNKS

[3] = molecular target: T1, NAD-dependent protein deacetylase sirtuin-2; assay: Inhibition of GST-tagged SIRT2 expressed in Escherichia coli after 60 mins by Dixon plot
[4] = molecular target: T2, NAD-dependent protein deacetylase sirtuin-1; assay: Inhibition of GST-tagged SIRT1 expressed in Escherichia coli after 10 mins by Dixon plot
[5] = molecular target: T3, NAD-dependent protein deacetylase sirtuin-1 (Homo sapiens) (UniProt Q96EB6); assay: Inhibition of recombinant SIRT1 at 200 uM preincubated for 5 mins before addition of substrate measured after 1 hr by fluorescence-based assay
T3 sequence (whole entry): T2 sequence (Q96EB6 whole entry)

[6] = molecular target: T4, NAD-dependent protein deacetylase sirtuin-2 (Homo sapiens) (UniProt Q8IXJ6); assay: Inhibition of recombinant SIRT2 at 200 uM preincubated for 5 mins before addition of substrate measured after 3 hrs by fluorescence-based assay
T4 sequence (whole entry): T1 sequence (Q8IXJ6 whole entry)

Compound | IC50 [1] [µM] | IC50 [2] [µM] | further results
CC[C@H](C)[C@H](NC(=O)[C@@H](NC(=O)[C@H](CCCCNC(C)=S)NC(=O)[C@H](CCCCN)NC(=O)[C@@H](N)Cc1cnc[nH]1)[C@@H](C)O)C(=O)O (H-HK[Lys(Thioacetyl)]TI-OH) | 7.6 | 0.23 | –
CC[C@H](C)[C@H](NC(=O)[C@H](C)NC(=O)[C@H](CCCCNC(C)=S)NC(=O)[C@H](CC(=O)O)NC(=O)[C@@H](N)CO)C(=O)O (H-SD[Lys(Thioacetyl)]AI-OH) | 72.8 | 6.7 | –
CC[C@H](C)[C@H](NC(=O)[C@H](CC(C)C)NC(=O)[C@H](CCCCNC(C)=S)NC(=O)[C@H](CC(=O)O)NC(=O)[C@@H](N)CO)C(=O)O (H-SD[Lys(Thioacetyl)]LI-OH) | 238 | 23.2 | –
CC(=S)NCCCC[C@H](NC(=O)[C@@H](N)CCCCN)C(=O)N[C@@H](CC(C)C)C(=O)O | 151 | 0.57 | –
CSCC[C@H](NC(=O)[C@H](CC(C)C)NC(=O)[C@H](CCCCNC(C)=S)NC(=O)[C@H](CC(=O)O)NC(=O)[C@@H](N)CO)C(=O)O (H-SD[Lys(Thioacetyl)]LM-OH) | 92.9 | 10.8 | –
CSCC[C@H](NC(=O)[C@H](CC(C)C)NC(=O)[C@H](CCCCNC(C)=S)NC(=O)[C@@H](N)CCCCN)C(=O)O (H-K[Lys(Thioacetyl)]LM-OH) | 49.8 | 0.33 | –
CC(=S)NCCCC[C@H](NC(=O)[C@H](CC(=O)O)NC(=O)[C@@H](N)CO)C(=O)N[C@H](C(=O)N[C@@H](C)C(=O)O)[C@@H](C)O (H-SD[Lys(Thioacetyl)]TA-OH) | 84.6 | 8.8 | –
CC[C@H](C)[C@H](NC(=O)[C@@H](NC(=O)[C@H](CCCCNC(C)=S)NC(=O)[C@H](CC(=O)O)NC(=O)[C@@H](N)Cc1cnc[nH]1)[C@@H](C)O)C(=O)O (H-HD[Lys(Thioacetyl)]TI-OH) | 31.1 | 4.3 | –
CC[C@H](C)[C@H](NC(=O)[C@@H](NC(=O)[C@H](CCCCNC(C)=S)NC(=O)[C@H](CC(=O)O)NC(=O)[C@H](C)N)[C@@H](C)O)C(=O)O (H-AD[Lys(Thioacetyl)]TI-OH) | 37.4 | 3.2 | –
CC[C@H](C)[C@H](NC(=O)[C@@H](NC(=O)[C@H](CCCCNC(C)=S)NC(=O)[C@H](CCCCN)NC(=O)[C@@H](N)CO)[C@@H](C)O)C(=O)O (H-SK[Lys(Thioacetyl)]TI-OH) | 6.9 | 0.18 | –
CC(=S)NCCCC[C@H](NC(=O)[C@@H](N)CC(=O)O)C(=O)N[C@H](C(=O)O)[C@@H](C)O | 175 | 12 | –
CSCC[C@H](NC(=O)[C@H](CC(C)C)NC(=O)[C@H](CCCCNC(C)=S)NC(=O)[C@H](CCCCN)NC(=O)[C@@H](N)Cc1cnc[nH]1)C(=O)O (H-HK[Lys(Thioacetyl)]LM-OH) | 6.4 | 0.33 | IC50 [3]: 10 µM; IC50 [4]: 10 µM
CC[C@H](C)[C@H](NC(=O)[C@@H](NC(=O)[C@H](CCCCNC(C)=S)NC(=O)[C@H](CC(=O)O)NC(=O)[C@@H](N)CO)[C@@H](C)O)C(=O)O (H-SD[Lys(Thioacetyl)]TI-OH) | 29.1 | 5 | –
CSCC[C@H](NC(=O)[C@H](C)NC(=O)[C@H](CCCCNC(C)=S)NC(=O)[C@H](CCCCN)NC(=O)[C@@H](N)Cc1cnc[nH]1)C(=O)O (H-HK[Lys(Thioacetyl)]AM-OH) | 3.8 | 0.18 | –
CC(=S)NCCCC[C@H](NC(=O)[C@H](CCCCN)NC(=O)[C@@H](N)Cc1cnc[nH]1)C(=O)N[C@@H](CC(C)C)C(=O)O (H-HK[Lys(Thioacetyl)]L-OH) | 19.9 | 0.48 | –
CC(=S)NCCCC[C@H](NC(=O)[C@H](CC(=O)O)NC(=O)[C@@H](N)CO)C(=O)O | – | – | inhibition [5]: 11.8%; inhibition [6]: 13.9%
CSCC[C@H](NC(=O)[C@@H](NC(=O)[C@H](CCCCNC(C)=S)NC(=O)[C@H](CC(=O)O)NC(=O)[C@@H](N)CO)[C@@H](C)O)C(=O)O (H-SD[Lys(Thioacetyl)]TM-OH) | 10.6 | 1.4 | –
CSCC[C@H](NC(=O)[C@H](CC(C)C)NC(=O)[C@H](CCCCNC(C)=S)NC(=O)[C@H](CCCCN)NC(=O)[C@H](C)N)C(=O)O (H-AK[Lys(Thioacetyl)]LM-OH) | 8.5 | 0.38 | –
CC(=S)NCCCC[C@H](NC(=O)[C@H](CCCCN)NC(=O)[C@@H](N)Cc1cnc[nH]1)C(=O)N[C@@H](CC(C)C)C(=O)N[C@@H](C)C(=O)O (H-HK[Lys(Thioacetyl)]LA-OH) | 33.3 | 0.9 | –
CC(=S)NCCCC[C@H](NC(=O)[C@H](CC(=O)O)NC(=O)[C@@H](N)CO)C(=O)N[C@H](C(=O)O)[C@@H](C)O (H-SD[Lys(Thioacetyl)]T-OH) | 44 | 11.1 | –
CC[C@H](C)[C@H](NC(=O)[C@@H](NC(=O)[C@H](CCCCNC(C)=S)NC(=O)[C@H](C)NC(=O)[C@@H](N)CO)[C@@H](C)O)C(=O)O (H-SA[Lys(Thioacetyl)]TI-OH) | 5.5 | 0.22 | –
CC[C@H](C)[C@H](NC(=O)[C@@H](NC(=O)[C@H](CCCCNC(C)=S)NC(=O)[C@@H](N)CC(=O)O)[C@@H](C)O)C(=O)O (H-D[Lys(Thioacetyl)]TI-OH) | 83.4 | 4.5 | –
CSCC[C@H](NC(=O)[C@H](CC(C)C)NC(=O)[C@H](CCCCNC(C)=S)NC(=O)[C@H](C)NC(=O)[C@@H](N)Cc1cnc[nH]1)C(=O)O (H-HA[Lys(Thioacetyl)]LM-OH) | 16.5 | 0.55 | –
